“And” between values parts separate entries of the source, which are not always exact repeats. Equal entries are not always repeated. Structures can show the parent of a compound that is named as a salt. Where two headings read alike, the source gives them in different places.
What was measured:
[1] = system: LTB4-mediated CD11b upregulation on human neutrophils; assay: LTB4-mediated CD11b upregulation on human neutrophils (flow cytometry, anti-CD11b-FITC); format: cell-based
Procedure: The following Assay method was used to evaluate the effects of 3 compounds for LTB4-mediated CD11b upregulation on human neutrophils:
Note: The Assay procedure described herein was modeled after a previously published method(viz., Prostaglandins, Leukot, Essent. Fatty Acids. 46:265-270. 1992, Biochem. Pharmacol. 49:1683-1690. 1995), the disclosure of which is incorporated herein by reference.
Approximately 1-2 mg of each compound was weighed and diluted to 1 mM in neat dimethyl sulphoxide (DMSO). These stocks were then diluted (using “doubling” dilutions) in assay buffer.
The assay buffer used throughout the studies consisted of Hanks Balanced Salts Solution (HBSS) with added 0.5% bovine serum albumin, low endotoxin (ICN Biomedicals Catalog #16-980-49). After dissolving the BSA in the HBSS, the buffer was membrane-filtered (0.2 μ) before use.
Human blood was drawn into 3×10 ml EDTA-K3 Vacutainer tubes, which were pooled and mixed in a 50 ml, blue cap polypropylene tube. Three ml portions of Mono-Poly Resolving medium (MPRM; ICN #16-980-49) were dispensed into 4 separate 13×100 glass disposable tubes. An additional 0.3 ml of PBS (phosphate buffered saline) was added to each tube and mixed with the MPRM by vigorous vortexing. Exactly 3.5 ml of the blood was carefully layered on top of the four MPRM-water mixtures. The tubes were gradually accelerated to 400×g and spun at this speed for 30 min at room temperature. Tubes were removed from the centrifuge and both the plasma and top cell (mononuclear) layers were removed and discarded. The second layer of cells was carefully collected, pooled and washed with assay buffer. The collected neutrophil cell preparation was then spun at 400×g for 5 min and re-washed once again. The cells were resuspended in assay buffer and counted using a Cell-Dyn 1600 cell counter (Abbott Diagnostics Co.). They were then resuspended in buffer at 9×10^6 cells/ml and held briefly for addition in a later step of the assay.
LTB4, (Biomol; ETOH stock @148.5 μM) was diluted to a 3.9 μM stock in assay buffer by dilution of 10 μl ETOH stock+371 μl assay buffer, mixed well and further diluted 1:100 (100 μl+9.9 ml buffer) to make a use stock of 39 nm in buffer for later use. The final concentration of LTB4 (3 nM) was determined after several experimental runs.
Exactly 10 μl of each putative compound/dilution and 10 μl of anti-CD11b-FITC (FITC=Fluorescein Isothiocyanate; Biosource Intl., #AHS1148) was carefully added to the bottom of 12×75 mm polypropylene tubes (Falcon #2063) as determined by the experimental design. Following this, 100 μl of the human neutrophil preparation (9E6/ml) was added and mixed well by vortexing. The compound/cell mixtures were incubated together for 15 minutes at room temperature. Following this incubation, 10 μl of diluted LTB4 stock was added (to make 3 nM final LTB4 concentration), mixed by vortexing and incubated in a 37° C. shaking water bath for 30 min. Following this the tubes were immediately placed on ice for 10 minutes. Following this 1 ml of diluted BD FACS Lyse (Becton Dickinson Fluorescense Activated Cell Sorting Lyse) was added to the tubes and vortexed. 10 minutes later the tubes were spun at 400×g at room temperature. After centrifugation, the tubes were aspirated and re-suspended in 1.0 ml of 1% paraformaldehyde solution.
The samples were then analyzed for fluorescence intensity (linear scale) using an EPICS XL flow cytometer and the “Mo-1 Isolated Neutrophil” protocol.
The mean fluorescence intensity (MFI) for each sample was computed using WinList software and expressed as percentage of maximum MFI.Microsoft Excel and further graphed and analyzed using linear regression.

[2] = Homo sapiens, Neutrophil, read-out: CD11b/CD18 IC50 (nM), isolated human neutrophils, 3 nM LTB4, semicolons separate individual assay determinations
[3] = Homo sapiens, Neutrophil, isolated human neutrophils, 3 nM LTB4, semicolons separate individual assay determinations, read-out: CD11b/CD18 IC50
[4] = isolated human neutrophils, 3 nM LTB4, semicolons separate individual assay determinations, read-out: CD11b/CD18 IC50
[5] = read-out: CD11b/CD18 IC50, isolated human neutrophils, 3 nM LTB4, semicolons separate individual assay determinations, sodium salt

SMILES	IC50 [1, 3] [nM]	IC50 [1, 4]	also measured
CCCc1c(OCCCOc2cc(O)c(C3CCOC3)cc2CC)cccc1Oc1ccccc1C(=O)O (stereo not shown) [Example 15, 2-(3-{3-[2-Ethyl-5-hydroxy-4-(tetrahydrofuran-3-yl)phenoxy]propoxy}-2-propylphenoxy)benzoic acid sodium salt hemihydrate]	–	–	IC50 [1, 2]: 27 nM
CCCc1c(OCCCOc2cc(O)c(-c3ccsc3)cc2CC)cccc1Oc1ccccc1C(=O)O [Example 17, 2-{3-[3-(2-Ethyl-5-hydroxy-4-thiophen-3-yl-phenoxy)propoxy]-2-propyl-phenoxy}benzoic acid hydrate]	11	–	IC50 ([1]; isolated human neutrophils, 3 nM LTB4, semicolons separate individual assay determinations, hydrate, read-out: CD11b/CD18 IC50): 5.6 nM and 8 nM
CCCc1c(OCCCOc2cc(O)c(-n3cccc3)cc2CC)cccc1Oc1ccccc1C(=O)OC [Example 7, 2-{3-[3-(2-ethyl-5-hydroxy-4-pyrrol-1-yl-phenoxy)propoxy]-2-propyl-phenoxy}benzoic acid methyl ester]	2020	3790 nM	–
CCCc1c(OCCCOc2cc(O)c(-c3ccc(F)cc3)cc2CC)cccc1Oc1ccccc1C#N [Compound B, reference compound]	–	–	IC-50 (nM) ± SEM ([1]; comparison compounds, isolated human neutrophils, 3 nM LTB4, A = average of 3 tests): not active
CCCc1c(OCCCOc2cc(O)c(-c3ccno3)cc2CC)cccc1Oc1ccccc1C(=O)O [Example 5, 2-{3-[3-(2-ethyl-5-hydroxy-4-isoxazol-5-yl-phenoxy)propoxy]-2-propylphenoxy}benzoic acid]	175	223 nM	–
CCCc1c(OCCCOc2cc(O)c(-c3ccc(F)cc3)cc2CC)cccc1Oc1ccccc1C(=O)O [Compound A, reference compound]	–	–	IC50 ([1]; Homo sapiens, Neutrophil, comparison compounds, isolated human neutrophils, 3 nM LTB4, A = average of 3 tests, read-out: IC-50 (nM) ± SEM): 1.7 ± 0.25 nM
CCCc1c(OCCCOc2cc(O)c(-c3ccco3)cc2CC)cccc1Oc1ccccc1C(=O)O [Example 13, 2-{3-[3-(2-Ethyl-4-furan-2-yl-5-hydroxyphenoxy)propoxy]-2-propylphenoxy}-benzoic acid sodium salt]	–	–	IC50 [1, 2]: 39 nM; IC50 [1, 5]: 54 nM
CCCc1c(OCCCOc2cc(O)c(-c3ccoc3)cc2CC)cccc1Oc1ccccc1C(=O)O [Example 14]	31	30 nM	–
CCCc1c(OCCCOc2cc(O)c(-c3cnn(C)c3)cc2CC)cccc1Oc1ccccc1C(=O)O [Example 10, 2-(3-{3-[2-ethyl-5-hydroxy-4-(1-methyl-1H-pyrazol-4-yl)-phenoxy]propoxy}-2-propylphenoxy)benzoic acid]	–	14 nM and 4.4 nM and 8.3 nM	–
CCCc1c(OCCCOc2cc(O)c(-c3cocn3)cc2CC)cccc1Oc1ccccc1C(=O)O [Example 1, 2-{3-[3-(2-Ethyl-5-hydroxy-4-oxazol-4-yl-phenoxy)propoxy]-2-propyl-phenoxy}benzoic acid]	480	–	–
CCCc1c(OCCCOc2cc(O)c(-c3ccsc3)cc2CC)cccc1Oc1ccccc1C(=O)O (hydrate or solvate) [Example 17, 2-{3-[3-(2-Ethyl-5-hydroxy-4-thiophen-3-yl-phenoxy)propoxy]-2-propyl-phenoxy}benzoic acid hydrate]	–	–	melting point: 90 to 95 °C (dec.)
CCCc1c(OCCCOc2cc(O)c(-c3ccn[nH]3)cc2CC)cccc1Oc1ccccc1C(=O)O [Example 4, 2-(3-{3-[2-Ethyl-5-hydroxy-4-(2H-pyrazol-3-yl)phenoxy]propoxy}-2-propyl-phenoxy)benzoic acid]	74	117 nM	–
CCCc1c(OCCCOc2cc(O)c(-c3nccs3)cc2CC)cccc1Oc1ccccc1C(=O)O [Example 11, 2-{3-[3-(2-Ethyl-5-hydroxy-4-thiazol-2-yl-phenoxy)propoxy]-2-propyl-phenoxy}benzoic acid]	–	620 nM and 2560 nM and 1010 nM	–
CCCc1c(OCCCOc2cc(O)c(-c3c(C)noc3C)cc2CC)cccc1Oc1ccccc1C(=O)O [Example 12, 2-(3-{3-[4-(3,5-Dimethylisoxazol-4-yl)-2-ethyl-5-hydroxyphenoxy]propoxy}-2-propylphenoxy)benzoic acid sodium salt]	–	–	IC50 [1, 2]: 10000 nM; IC50 [1, 5]: 5700 nM
CCCc1c(OCCCOc2cc(O)c(C3CCOC3)cc2CC)cccc1Oc1ccccc1C(=O)[O-].[Na+] (stereo not shown) (hydrate or solvate) [Example 15, 2-(3-{3-[2-Ethyl-5-hydroxy-4-(tetrahydrofuran-3-yl)phenoxy]propoxy}-2-propylphenoxy)benzoic acid sodium salt hemihydrate]	–	–	melting point: 67 to 71 °C
CCCc1c(OCCCOc2cc(O)c(-c3cnn[nH]3)cc2CC)cccc1Oc1ccccc1C(=O)O [Example 6]	260	–	–
CCCc1c(OCCCOc2cc(O)c(-c3cnc[nH]3)cc2CC)cccc1Oc1ccccc1C(=O)O [Example 2, 2-(3-{3-[2-Ethyl-5-hydroxy-4-(3H-imidazol-4-yl)phenoxy]propoxy}-2-propyl-phenoxy)benzoic acid hydrochloride]	5880	–	–
CCCc1c(OCCCOc2cc(O)c(-c3cccs3)cc2CC)cccc1Oc1ccccc1C(=O)O [Example 9, 2-{3-[3-(2-Ethyl-5-hydroxy-4-thiophen-2-yl-phenoxy)propoxy]-2-propyl-phenoxy}benzoic acid sodium salt]	–	–	IC50 [1, 2]: 23 nM; IC50 [1, 5]: 20 nM
CCCc1c(OCCCOc2cc(O)c(-c3cscn3)cc2CC)cccc1Oc1ccccc1C(=O)O [Example 3, 2-{3-[3-(2-Ethyl-5-hydroxy-4-thiazol-4-yl-phenoxy)propoxy]-2-propyl-phenoxy}benzoic acid]	353	339 nM	–
CCCc1c(OCCCOc2cc(O)c(C3CCCN3)cc2CC)cccc1Oc1ccccc1C(=O)O (stereo not shown) [Example 16, 2-{3-[3-(2-Ethyl-5-hydroxy-4-pyrrolidin-2-yl-phenoxy)propoxy]-2-propyl-phenoxy}benzoic acid hydrochloride hydrate]	1080	–	IC50 ([1]; isolated human neutrophils, 3 nM LTB4, semicolons separate individual assay determinations, hydrochloride hydrate, read-out: CD11b/CD18 IC50): 837 nM
CCCc1c(OCCCOc2cc(O)c(-c3nc(Br)ns3)cc2CC)cccc1Oc1ccccc1C(=O)O [Example 8, 2-(3-{3-[4-(3-bromo-[1,2,4]thiadiazol-5-yl)-2-ethyl-5-hydroxyphenoxy]propoxy}-2-propylphenoxy)benzoic acid]	> 50000	–	–

From US6797723B1, “Heterocycle substituted diphenyl leukotriene antagonists” (Eli Lilly and Company, priority 1999, dated 2004)
